In ChEMBL document CHEMBL3991601, “The target landscape of clinical kinase drugs” (Science, 2017):
Active and inactive are the calls of the source. For most assays here, no stated cut-off is given here; in the data, actives have a measured Kd and inactives only a lower limit.

How the values were obtained:
[1] = target: Adenylate kinase 2, mitochondrial (Homo sapiens, UniProt P54819)
[2] = target: Serine/threonine-protein kinase MRCK alpha (Homo sapiens, UniProt Q5VT25)
[3] = target: Casein kinase I isoform alpha (Homo sapiens, UniProt P48729)
Ephrin type-A receptor 4 = Ephrin type-A receptor 4 (Homo sapiens, UniProt P54764)
[4] = target: Fibroblast growth factor receptor 1 (Homo sapiens, UniProt P11362)
[5] = target: Tyrosine-protein kinase FRK (Homo sapiens, UniProt P42685)
[6] = target: Tyrosine-protein kinase Fyn (Homo sapiens, UniProt P06241)
[7] = target: Interleukin-1 receptor-associated kinase 1 (Homo sapiens, UniProt P51617)
[8] = target: Mitogen-activated protein kinase 11 (Homo sapiens, UniProt Q15759)
[9] = target: Maternal embryonic leucine zipper kinase (Homo sapiens, UniProt Q14680)
[10] = target: Ribosomal protein S6 kinase alpha-4 (Homo sapiens, UniProt O75676)
[11] = target: T1, Structural maintenance of chromosomes protein 1A (Homo sapiens, UniProt Q14683)
T1 sequence (Q14683 whole entry): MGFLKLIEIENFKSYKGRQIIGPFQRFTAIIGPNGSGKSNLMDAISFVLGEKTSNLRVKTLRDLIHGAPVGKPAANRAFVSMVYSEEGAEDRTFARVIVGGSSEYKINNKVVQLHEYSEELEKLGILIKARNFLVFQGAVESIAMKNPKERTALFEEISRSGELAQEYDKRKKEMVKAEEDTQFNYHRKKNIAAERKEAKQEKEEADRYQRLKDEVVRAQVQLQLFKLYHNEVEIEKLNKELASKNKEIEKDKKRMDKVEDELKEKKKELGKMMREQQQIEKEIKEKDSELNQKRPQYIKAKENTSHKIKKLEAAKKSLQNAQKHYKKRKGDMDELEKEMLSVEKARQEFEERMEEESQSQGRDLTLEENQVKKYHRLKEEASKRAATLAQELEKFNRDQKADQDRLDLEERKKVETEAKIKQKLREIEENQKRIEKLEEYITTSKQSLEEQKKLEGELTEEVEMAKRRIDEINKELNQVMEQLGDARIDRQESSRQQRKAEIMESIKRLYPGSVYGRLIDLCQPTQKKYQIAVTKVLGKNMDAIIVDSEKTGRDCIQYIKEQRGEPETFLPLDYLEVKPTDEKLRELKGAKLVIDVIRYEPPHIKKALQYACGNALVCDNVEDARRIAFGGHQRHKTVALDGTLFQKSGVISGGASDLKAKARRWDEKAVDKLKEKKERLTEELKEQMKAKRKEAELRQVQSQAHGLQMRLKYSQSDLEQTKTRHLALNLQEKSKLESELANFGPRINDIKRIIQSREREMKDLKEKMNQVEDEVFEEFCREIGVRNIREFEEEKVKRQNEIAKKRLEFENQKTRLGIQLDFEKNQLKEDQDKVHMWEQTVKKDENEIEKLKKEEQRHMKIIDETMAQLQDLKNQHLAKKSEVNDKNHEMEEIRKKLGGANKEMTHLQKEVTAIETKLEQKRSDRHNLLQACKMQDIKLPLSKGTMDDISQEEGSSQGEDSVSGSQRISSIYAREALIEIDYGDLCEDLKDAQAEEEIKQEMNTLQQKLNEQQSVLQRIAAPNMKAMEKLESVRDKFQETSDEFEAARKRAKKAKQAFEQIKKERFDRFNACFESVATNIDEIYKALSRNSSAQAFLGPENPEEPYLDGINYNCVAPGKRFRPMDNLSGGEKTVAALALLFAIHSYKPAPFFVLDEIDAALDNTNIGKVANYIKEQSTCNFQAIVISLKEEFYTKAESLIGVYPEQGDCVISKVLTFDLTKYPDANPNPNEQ

[12] = target: Proto-oncogene tyrosine-protein kinase Src (Homo sapiens, UniProt P12931)
[13] = target: T2, Serine/threonine-protein kinase 3 (Homo sapiens, UniProt Q13188)
T2 sequence (Q13188 whole entry): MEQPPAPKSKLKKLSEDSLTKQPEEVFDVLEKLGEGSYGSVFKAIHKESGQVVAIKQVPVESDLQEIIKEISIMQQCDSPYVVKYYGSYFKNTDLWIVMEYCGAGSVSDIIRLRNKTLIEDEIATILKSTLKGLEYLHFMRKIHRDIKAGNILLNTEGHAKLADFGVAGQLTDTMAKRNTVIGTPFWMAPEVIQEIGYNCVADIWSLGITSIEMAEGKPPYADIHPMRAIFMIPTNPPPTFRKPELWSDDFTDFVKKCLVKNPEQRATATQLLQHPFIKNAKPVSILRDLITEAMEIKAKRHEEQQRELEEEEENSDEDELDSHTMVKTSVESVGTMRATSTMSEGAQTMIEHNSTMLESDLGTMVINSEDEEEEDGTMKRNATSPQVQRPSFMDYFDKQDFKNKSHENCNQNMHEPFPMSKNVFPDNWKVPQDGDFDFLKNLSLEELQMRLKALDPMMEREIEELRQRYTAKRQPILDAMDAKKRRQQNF

Sequence of Casein kinase I isoform alpha (P48729 whole entry, canonical isoform): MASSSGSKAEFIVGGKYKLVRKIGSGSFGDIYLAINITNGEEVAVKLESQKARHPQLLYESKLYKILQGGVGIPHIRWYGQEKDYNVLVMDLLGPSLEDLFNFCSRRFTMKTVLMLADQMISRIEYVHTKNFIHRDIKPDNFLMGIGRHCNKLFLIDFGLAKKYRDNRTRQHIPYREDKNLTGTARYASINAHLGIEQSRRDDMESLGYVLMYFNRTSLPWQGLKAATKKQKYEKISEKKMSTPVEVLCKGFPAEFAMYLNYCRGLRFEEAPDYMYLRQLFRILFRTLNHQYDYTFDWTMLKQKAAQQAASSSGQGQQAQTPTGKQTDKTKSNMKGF
Sequence of Maternal embryonic leucine zipper kinase (Q14680 whole entry): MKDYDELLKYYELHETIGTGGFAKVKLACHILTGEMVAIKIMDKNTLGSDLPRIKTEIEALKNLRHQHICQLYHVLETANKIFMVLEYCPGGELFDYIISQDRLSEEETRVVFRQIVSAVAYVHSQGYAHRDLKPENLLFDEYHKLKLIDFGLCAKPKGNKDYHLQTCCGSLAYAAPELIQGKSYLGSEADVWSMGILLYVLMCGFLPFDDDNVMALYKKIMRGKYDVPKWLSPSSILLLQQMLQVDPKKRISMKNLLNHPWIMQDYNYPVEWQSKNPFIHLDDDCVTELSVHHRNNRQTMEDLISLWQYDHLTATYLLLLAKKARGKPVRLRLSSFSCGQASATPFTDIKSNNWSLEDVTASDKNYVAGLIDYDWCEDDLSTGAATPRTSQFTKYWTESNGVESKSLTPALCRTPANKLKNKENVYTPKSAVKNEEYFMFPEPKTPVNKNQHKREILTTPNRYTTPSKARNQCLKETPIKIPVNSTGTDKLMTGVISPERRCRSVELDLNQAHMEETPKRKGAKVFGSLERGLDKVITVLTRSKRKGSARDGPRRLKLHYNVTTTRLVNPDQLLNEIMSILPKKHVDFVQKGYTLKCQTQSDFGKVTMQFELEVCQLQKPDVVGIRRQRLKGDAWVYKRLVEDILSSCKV
Sequence of Tyrosine-protein kinase Fyn (P06241 whole entry): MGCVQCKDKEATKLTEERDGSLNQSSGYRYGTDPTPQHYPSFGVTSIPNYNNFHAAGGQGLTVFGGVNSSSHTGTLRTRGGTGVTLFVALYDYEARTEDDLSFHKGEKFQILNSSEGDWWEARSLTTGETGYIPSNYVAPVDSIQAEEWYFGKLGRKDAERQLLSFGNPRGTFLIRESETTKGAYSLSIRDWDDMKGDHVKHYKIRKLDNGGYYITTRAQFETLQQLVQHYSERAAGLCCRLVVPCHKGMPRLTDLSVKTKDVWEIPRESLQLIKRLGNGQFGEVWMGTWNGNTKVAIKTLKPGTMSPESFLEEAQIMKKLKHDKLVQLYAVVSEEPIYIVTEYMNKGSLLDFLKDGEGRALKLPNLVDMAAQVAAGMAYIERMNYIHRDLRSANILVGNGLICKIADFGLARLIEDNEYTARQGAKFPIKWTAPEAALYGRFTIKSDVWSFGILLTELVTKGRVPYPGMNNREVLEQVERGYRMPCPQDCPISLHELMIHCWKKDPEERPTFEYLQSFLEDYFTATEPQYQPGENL
Sequence of Mitogen-activated protein kinase 11 (Q15759 whole entry): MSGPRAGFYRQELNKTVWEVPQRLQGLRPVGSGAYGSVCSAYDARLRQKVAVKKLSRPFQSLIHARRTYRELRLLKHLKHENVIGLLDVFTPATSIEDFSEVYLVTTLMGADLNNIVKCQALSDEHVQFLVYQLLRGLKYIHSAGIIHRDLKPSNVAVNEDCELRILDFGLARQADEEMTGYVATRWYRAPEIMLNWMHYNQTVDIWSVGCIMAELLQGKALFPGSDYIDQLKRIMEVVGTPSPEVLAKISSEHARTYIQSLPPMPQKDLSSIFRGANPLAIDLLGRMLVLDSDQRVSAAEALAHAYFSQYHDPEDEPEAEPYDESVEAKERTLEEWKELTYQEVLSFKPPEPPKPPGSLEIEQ
Sequence of Proto-oncogene tyrosine-protein kinase Src (P12931 2-536 limits assumed): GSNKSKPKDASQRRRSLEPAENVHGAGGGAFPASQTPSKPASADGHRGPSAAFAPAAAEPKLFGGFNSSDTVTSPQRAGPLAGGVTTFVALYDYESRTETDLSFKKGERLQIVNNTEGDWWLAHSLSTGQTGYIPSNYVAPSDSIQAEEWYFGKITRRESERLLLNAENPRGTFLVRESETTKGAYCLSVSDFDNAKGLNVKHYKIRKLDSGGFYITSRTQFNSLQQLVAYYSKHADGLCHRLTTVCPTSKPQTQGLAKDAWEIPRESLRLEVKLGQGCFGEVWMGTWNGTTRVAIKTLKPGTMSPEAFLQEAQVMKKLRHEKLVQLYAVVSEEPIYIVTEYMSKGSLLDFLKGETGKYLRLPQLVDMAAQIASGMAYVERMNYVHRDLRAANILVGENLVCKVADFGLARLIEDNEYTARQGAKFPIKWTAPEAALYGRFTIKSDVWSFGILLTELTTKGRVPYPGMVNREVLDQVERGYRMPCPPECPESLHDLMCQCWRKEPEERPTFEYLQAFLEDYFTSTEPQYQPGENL
Sequence of Tyrosine-protein kinase FRK (P42685 whole entry): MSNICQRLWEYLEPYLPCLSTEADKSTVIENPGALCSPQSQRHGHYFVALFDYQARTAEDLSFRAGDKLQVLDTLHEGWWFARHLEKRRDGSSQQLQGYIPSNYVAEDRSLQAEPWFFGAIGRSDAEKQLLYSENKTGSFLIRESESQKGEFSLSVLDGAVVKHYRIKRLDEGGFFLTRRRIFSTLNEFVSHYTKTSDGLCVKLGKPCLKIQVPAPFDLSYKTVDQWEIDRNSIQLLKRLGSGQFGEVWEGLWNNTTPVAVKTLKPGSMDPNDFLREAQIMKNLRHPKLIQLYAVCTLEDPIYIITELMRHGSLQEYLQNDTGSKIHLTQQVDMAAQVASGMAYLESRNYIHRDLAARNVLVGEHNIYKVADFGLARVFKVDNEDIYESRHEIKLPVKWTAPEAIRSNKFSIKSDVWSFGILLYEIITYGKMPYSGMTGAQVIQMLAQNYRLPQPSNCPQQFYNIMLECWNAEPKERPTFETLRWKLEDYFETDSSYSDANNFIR
Sequence of Ribosomal protein S6 kinase alpha-4 (O75676 whole entry): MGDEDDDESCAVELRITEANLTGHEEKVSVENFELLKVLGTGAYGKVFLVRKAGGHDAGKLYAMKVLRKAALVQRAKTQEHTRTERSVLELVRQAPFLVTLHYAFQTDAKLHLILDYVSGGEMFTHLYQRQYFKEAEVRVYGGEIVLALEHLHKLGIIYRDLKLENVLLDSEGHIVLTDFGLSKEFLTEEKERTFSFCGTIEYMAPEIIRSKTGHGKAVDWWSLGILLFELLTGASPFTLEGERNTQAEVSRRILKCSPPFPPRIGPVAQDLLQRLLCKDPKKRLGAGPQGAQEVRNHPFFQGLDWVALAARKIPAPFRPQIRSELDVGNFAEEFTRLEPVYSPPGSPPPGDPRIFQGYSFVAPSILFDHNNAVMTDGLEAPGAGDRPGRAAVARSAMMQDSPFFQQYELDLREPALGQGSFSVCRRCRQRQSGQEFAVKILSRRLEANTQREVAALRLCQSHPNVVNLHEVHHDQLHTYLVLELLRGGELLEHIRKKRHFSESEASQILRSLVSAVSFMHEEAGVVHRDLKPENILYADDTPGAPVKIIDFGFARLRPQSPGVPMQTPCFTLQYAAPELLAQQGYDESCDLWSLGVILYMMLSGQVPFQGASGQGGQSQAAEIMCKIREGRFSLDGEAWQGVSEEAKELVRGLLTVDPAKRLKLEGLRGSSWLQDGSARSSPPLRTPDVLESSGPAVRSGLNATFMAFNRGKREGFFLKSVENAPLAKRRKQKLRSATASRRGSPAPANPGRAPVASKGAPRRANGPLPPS
Sequence of Ephrin type-A receptor 4 (P54764 whole entry): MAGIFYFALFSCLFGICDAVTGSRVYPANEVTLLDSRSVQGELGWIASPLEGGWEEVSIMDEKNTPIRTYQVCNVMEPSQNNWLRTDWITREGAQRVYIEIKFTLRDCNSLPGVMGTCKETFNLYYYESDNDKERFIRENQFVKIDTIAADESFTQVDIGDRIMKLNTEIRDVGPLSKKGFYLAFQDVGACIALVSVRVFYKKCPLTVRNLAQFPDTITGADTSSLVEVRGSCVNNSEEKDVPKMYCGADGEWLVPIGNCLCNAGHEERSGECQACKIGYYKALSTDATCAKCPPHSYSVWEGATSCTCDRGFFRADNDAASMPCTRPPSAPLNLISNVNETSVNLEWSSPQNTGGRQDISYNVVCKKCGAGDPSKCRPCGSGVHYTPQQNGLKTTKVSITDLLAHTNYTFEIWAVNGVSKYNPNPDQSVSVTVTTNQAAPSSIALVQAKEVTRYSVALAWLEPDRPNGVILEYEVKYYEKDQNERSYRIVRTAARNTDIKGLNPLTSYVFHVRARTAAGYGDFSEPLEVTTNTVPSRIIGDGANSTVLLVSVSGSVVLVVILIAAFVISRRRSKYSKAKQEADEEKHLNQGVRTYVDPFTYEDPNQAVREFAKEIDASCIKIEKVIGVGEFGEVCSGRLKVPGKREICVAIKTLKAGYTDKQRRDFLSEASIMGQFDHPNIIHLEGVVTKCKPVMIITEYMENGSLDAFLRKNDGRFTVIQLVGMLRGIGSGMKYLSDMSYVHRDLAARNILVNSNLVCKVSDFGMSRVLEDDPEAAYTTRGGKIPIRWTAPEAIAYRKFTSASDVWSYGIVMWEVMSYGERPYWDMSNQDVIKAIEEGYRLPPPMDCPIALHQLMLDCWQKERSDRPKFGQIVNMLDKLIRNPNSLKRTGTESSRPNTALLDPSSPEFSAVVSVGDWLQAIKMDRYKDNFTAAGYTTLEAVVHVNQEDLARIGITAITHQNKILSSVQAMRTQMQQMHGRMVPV

Cc1c(Cn2c(C)nc3c(C(=O)O)cc(N4CCOCC4)cc32)cccc1C(F)(F)F [GSK-2636771]
Kd [1]: > 30 µM (inactive)
Kd [2]: > 30 µM (inactive)
Kd [3]: > 30 µM (inactive)
Kd (Ephrin type-A receptor 4): > 30 µM (inactive)
Kd [4]: > 30 µM (inactive)
Kd [5]: > 30 µM (inactive)
Kd [6]: > 30 µM (inactive)
Kd [7]: > 30 µM (inactive)
Kd [8]: > 30 µM (inactive)
Kd [9]: > 30 µM (inactive)
Kd [10]: > 30 µM (inactive)
Kd [11]: > 30 µM (inactive)
Kd [12]: > 30 µM (inactive)
Kd [13]: > 30 µM (inactive)

Cn1cc(-c2[nH]c3cc(NC(=O)[C@H](N)C4CCCCC4)cc4c3c2C=NNC4=O)cn1
Kd [1]: > 30 µM (inactive)
Kd [2]: > 30 µM (inactive)
Kd [3]: > 30 µM (inactive)
Kd (Ephrin type-A receptor 4): > 30 µM (inactive)
Kd [4]: 0.192 µM (active)
Kd [5]: > 30 µM (inactive)
Kd [6]: 1.34 µM (active)
Kd [7]: > 30 µM (inactive)
Kd [8]: > 30 µM (inactive)
Kd [9]: 45.7 µM (active)
Kd [10]: 1.05 µM (active)
Kd [11]: > 30 µM (inactive)
Kd [12]: 1.4 µM (active)
Kd [13]: > 30 µM (inactive)

COCCN1CCN(Cc2ccc(-c3n[nH]c4c3C(=O)c3c(NC(=O)NN5CCOCC5)cccc3-4)cc2)CC1 [RGB-286638]
Kd [1]: > 30 µM (inactive)
Kd [2]: 1.09 µM (active)
Kd [3]: 8.07 µM (active)
Kd (Ephrin type-A receptor 4): > 30 µM (inactive)
Kd [4]: > 30 µM (inactive)
Kd [5]: > 30 µM (inactive)
Kd [6]: > 30 µM (inactive)
Kd [7]: > 30 µM (inactive)
Kd [8]: > 30 µM (inactive)
Kd [9]: 1.46 µM (active)
Kd [10]: > 30 µM (inactive)
Kd [11]: > 30 µM (inactive)
Kd [12]: > 30 µM (inactive)
Kd [13]: > 30 µM (inactive)

CCc1nc(C(N)=O)c(Nc2ccc(N3CCC(N4CCN(C)CC4)CC3)c(OC)c2)nc1NC1CCOCC1 [GILTERITINIB]
Kd [1]: > 30 µM (inactive)
Kd [2]: > 30 µM (inactive)
Kd [3]: > 30 µM (inactive)
Kd (Ephrin type-A receptor 4): > 30 µM (inactive)
Kd [4]: > 30 µM (inactive)
Kd [5]: > 30 µM (inactive)
Kd [6]: > 30 µM (inactive)
Kd [7]: > 30 µM (inactive)
Kd [8]: > 30 µM (inactive)
Kd [9]: > 30 µM (inactive)
Kd [10]: > 30 µM (inactive)
Kd [11]: > 30 µM (inactive)
Kd [12]: > 30 µM (inactive)
Kd [13]: > 30 µM (inactive)

CCN1CCN(Cc2ccc(Nc3ncc(F)c(-c4cc(F)c5nc(C)n(C(C)C)c5c4)n3)nc2)CC1 [ABEMACICLIB]
Kd [1]: > 30 µM (inactive)
Kd [2]: > 30 µM (inactive)
Kd [3]: > 30 µM (inactive)
Kd (Ephrin type-A receptor 4): > 30 µM (inactive)
Kd [4]: > 30 µM (inactive)
Kd [5]: > 30 µM (inactive)
Kd [6]: > 30 µM (inactive)
Kd [7]: 0.126 µM (active)
Kd [8]: > 30 µM (inactive)
Kd [9]: > 30 µM (inactive)
Kd [10]: > 30 µM (inactive)
Kd [11]: > 30 µM (inactive)
Kd [12]: > 30 µM (inactive)
Kd [13]: > 30 µM (inactive)

COc1cccc(Nc2ncnn3ccc(CN4CC[C@@H](N)[C@H](O)C4)c23)c1 [BMS-690514]
Kd [1]: > 30 µM (inactive)
Kd [2]: > 30 µM (inactive)
Kd [3]: 1.37 µM (active)
Kd (Ephrin type-A receptor 4): > 30 µM (inactive)
Kd [4]: > 30 µM (inactive)
Kd [5]: 0.795 µM (active)
Kd [6]: 0.583 µM (active)
Kd [7]: > 30 µM (inactive)
Kd [8]: > 30 µM (inactive)
Kd [9]: > 30 µM (inactive)
Kd [10]: > 30 µM (inactive)
Kd [11]: > 30 µM (inactive)
Kd [12]: 1.15 µM (active)
Kd [13]: > 30 µM (inactive)

O=C(NOC[C@H](O)CO)c1ccc(F)c(F)c1Nc1ccc(I)cc1F [MIRDAMETINIB]
Kd [1]: > 30 µM (inactive)
Kd [2]: > 30 µM (inactive)
Kd [3]: > 30 µM (inactive)
Kd (Ephrin type-A receptor 4): > 30 µM (inactive)
Kd [4]: > 30 µM (inactive)
Kd [5]: > 30 µM (inactive)
Kd [6]: > 30 µM (inactive)
Kd [7]: > 30 µM (inactive)
Kd [8]: > 30 µM (inactive)
Kd [9]: > 30 µM (inactive)
Kd [10]: > 30 µM (inactive)
Kd [11]: > 30 µM (inactive)
Kd [12]: > 30 µM (inactive)
Kd [13]: > 30 µM (inactive)

O=C(NC[C@H](O)CO)c1ccncc1Nc1ccc(I)cc1F [PIMASERTIB]
Kd [1]: > 30 µM (inactive)
Kd [2]: > 30 µM (inactive)
Kd [3]: > 30 µM (inactive)
Kd (Ephrin type-A receptor 4): > 30 µM (inactive)
Kd [4]: > 30 µM (inactive)
Kd [5]: > 30 µM (inactive)
Kd [6]: > 30 µM (inactive)
Kd [7]: > 30 µM (inactive)
Kd [8]: > 30 µM (inactive)
Kd [9]: > 30 µM (inactive)
Kd [10]: > 30 µM (inactive)
Kd [11]: > 30 µM (inactive)
Kd [12]: > 30 µM (inactive)
Kd [13]: > 30 µM (inactive)

Cc1cc(-c2cc(OC(=O)c3ccccc3)ccc2Cl)cc2nnc(Nc3ccc(OCCN4CCCC4)cc3)nc12 [TG100-801]
Kd [1]: > 30 µM (inactive)
Kd [2]: > 30 µM (inactive)
Kd [3]: > 30 µM (inactive)
Kd (Ephrin type-A receptor 4): 1.93 µM
Kd [4]: > 30 µM (inactive)
Kd [5]: > 30 µM (inactive)
Kd [6]: > 30 µM (inactive)
Kd [7]: > 30 µM (inactive)
Kd [8]: > 30 µM (inactive)
Kd [9]: > 30 µM (inactive)
Kd [10]: > 30 µM (inactive)
Kd [11]: > 30 µM (inactive)
Kd [12]: > 30 µM (inactive)
Kd [13]: > 30 µM (inactive)

O=C(Nc1ccc(OC(F)(F)F)cc1)c1sccc1NCc1ccnc2ccccc12 [OSI-930]
Kd [1]: > 30 µM (inactive)
Kd [2]: > 30 µM (inactive)
Kd [3]: > 30 µM (inactive)
Kd (Ephrin type-A receptor 4): > 30 µM (inactive)
Kd [4]: > 30 µM (inactive)
Kd [5]: > 30 µM (inactive)
Kd [6]: > 30 µM (inactive)
Kd [7]: > 30 µM (inactive)
Kd [8]: > 30 µM (inactive)
Kd [9]: > 30 µM (inactive)
Kd [10]: > 30 µM (inactive)
Kd [11]: > 30 µM (inactive)
Kd [12]: > 30 µM (inactive)
Kd [13]: > 30 µM (inactive)

NC[C@@](O)(c1ccc(Cl)cc1)c1ccc(-c2cn[nH]c2)cc1 [AT-13148]
Kd [1]: > 30 µM (inactive)
Kd [2]: > 30 µM (inactive)
Kd [3]: > 30 µM (inactive)
Kd (Ephrin type-A receptor 4): > 30 µM (inactive)
Kd [4]: > 30 µM (inactive)
Kd [5]: > 30 µM (inactive)
Kd [6]: > 30 µM (inactive)
Kd [7]: > 30 µM (inactive)
Kd [8]: > 30 µM (inactive)
Kd [9]: > 30 µM (inactive)
Kd [10]: > 30 µM (inactive)
Kd [11]: > 30 µM (inactive)
Kd [12]: > 30 µM (inactive)
Kd [13]: > 30 µM (inactive)

COc1cc2nccc(Oc3ccc(NC(=O)C4(C(=O)Nc5ccc(F)cc5)CC4)cc3)c2cc1OC [CABOZANTINIB]
Kd [1]: > 30 µM (inactive)
Kd [2]: > 30 µM (inactive)
Kd [3]: > 30 µM (inactive)
Kd (Ephrin type-A receptor 4): > 30 µM (inactive)
Kd [4]: > 30 µM (inactive)
Kd [5]: 0.56 µM (active)
Kd [6]: > 30 µM (inactive)
Kd [7]: > 30 µM (inactive)
Kd [8]: > 30 µM (inactive)
Kd [9]: > 30 µM (inactive)
Kd [10]: > 30 µM (inactive)
Kd [11]: > 30 µM (inactive)
Kd [12]: > 30 µM (inactive)
Kd [13]: > 30 µM (inactive)
